{
  "source": "patent US20110033488A1",
  "about": "“AGENTS AND METHODS FOR TREATMENT OF ANXIETY DISORDERS” (Yeda Research and Development Co. Ltd., priority 2008, published 2011)",
  "molecules": {"B1": {"name": "IL-10: cytokine (protein, UniProt P22301 19-178, looked up)", "Interleukin-10": "SPGQGTQSENSCTHFPGNLPNMLRDLRDAFSRVKTFFQMKDQLDNLLLKESLLEDFKGYLGCQALSEMIQFYLEEVMPQAENQDPDIKAHVNSLGENLKTLRLRLRRCHRFLPCENKSKAVEQVKNAFNKLQEKGIYKAMSEFDIFINYIEAYMTMKIRN"}},
  "key": {"[1]": {"test_system": "ICAM-1 on choroid plexus cells (ECACC # 00031626)", "assay": "ICAM-1 expression on choroid plexus cell line", "assay_type": "cell-based, rat", "settings": "for ICAM-1 expression: 24 hrs", "method": "(iv) Choroid Plexus endothelial cell culture. RCP cells (ECACC # 00031626, a kind gift from Dr. A. Chen, Weizmann Institute) (Battle et al., 2000) were cultured at 37° C. under 95% air/5% CO2 in DMEM medium containing 10% FCS, 100 U/ml penicillin, […], 1% insulin-transferrin-selenium mix (Sigma-Aldrich) and 0.1% Epidermal Growth Factor ([…]). The culture medium was changed every 2 days.\nCPx cultures grown on cover slips were washed with PBS, and fixed as described above. The fixed cells were then treated with a blocking solution containing 10% FCS, 2% bovine serum albumin, 1% glycine, and 0.1% Triton X-100 (Sigma-Aldrich), and stained with hamster anti-mouse CD54 (ICAM-1) (Chemicon)."}, "mice": {"test_system": "mice", "settings": "one immunization with 100 μg peptide, without pertussis toxin"}, "[2]": {"settings": "all concentrations tested (1-100 ng/ml)"}},
  "note": "Peptide text beside a SMILES is read from it.",
  "data": [
    {"molecule": "IFN-γ: cytokine", "values": [
      {"measurement": "ICAM-1 expression", "setting": "[1]; higher concentrations", "value": "significant inhibition"},
      {"measurement": "ICAM-1 expression", "setting": "[1]; lower concentrations (1 ng and 10 ng)", "value": "inactive"}
    ]},
    {"molecule": "C[C@]12C[C@H](O)[C@H]3[C@@H](CCC4=CC(=O)CC[C@@]43C)[C@@H]1CC[C@@H]2C(=O)CO", "note": "[corticosterone, reference compound]", "values": [
      {"measurement": "Concentration of peak ICAM-1 expression", "setting": "[1]; 24 hrs incubation", "value": 1, "unit": "ng/mL"},
      {"measurement": "ICAM-1 expression", "setting": "[1]; higher doses 20 ng/ml and 50 ng/ml", "value": "significantly inhibited"},
      {"measurement": "ICAM-1 expression", "setting": "[1]; lower doses 1 ng/ml and 5 ng/ml", "value": "significantly elevated"}
    ]},
    {"molecule": "TNF-α", "values": [
      {"measurement": "ICAM-1 expression", "setting": "[1]; [2]", "value": "significant elevation"}
    ]},
    {"molecule": "IL-6: cytokine", "values": [
      {"measurement": "ICAM-1 expression", "setting": "[1]; [2]", "value": "no effect"}
    ]},
    {"molecule": "CSCC[C@H](N)C(=O)N[C@@H](CCC(=O)O)C(=O)N[C@H](C(=O)NCC(=O)N[C@@H](Cc1c[nH]c2ccccc12)C(=O)N[C@@H](Cc1ccc(O)cc1)C(=O)N[C@@H](CCCNC(=N)N)C(=O)N[C@@H](CO)C(=O)N1CCC[C@H]1C(=O)N[C@@H](Cc1ccccc1)C(=O)N[C@@H](CO)C(=O)N[C@@H](CCCNC(=N)N)C(=O)N[C@H](C(=O)N[C@H](C(=O)N[C@@H](Cc1c[nH]cn1)C(=O)N[C@@H](CC(C)C)C(=O)N[C@@H](Cc1ccc(O)cc1)C(=O)N[C@@H](CCCNC(=N)N)C(=O)N[C@@H](CC(N)=O)C(=O)NCC(=O)N[C@@H](CCCCN)C(=O)O)C(C)C)C(C)C)C(C)C", "note": "[pMOG35-55] (H-MEVGWYRSPFSRVVHLYRNGK-OH; N-terminus and C-terminus assumed)", "values": [
      {"measurement": "Induction of EAE", "setting": "mice", "value": "no EAE was induced"}
    ]},
    {"molecule": "B1", "values": [
      {"measurement": "ICAM-1 expression", "setting": "[1]; [2]", "value": "significantly reduced"}
    ]}
  ]
}
